In brackets after ≈: the same amount, converted by molar mass.
What was measured:
60 kinase assays = experiment: Kinase and biochemical assay screens (Upstate panel); details: concentrations of less than 1 μg/ml; 1 μM in 60 kinase assays
From the text: In an effort to understand how these compounds might be acting at the cellular and molecular level, several screens of drug activity were initiated. The first 2 screens were designed to test the activity of drug on certain binding events and the activity of a variety of enzymes in vitro (FIGS. 14 and 15).

[1] = system: rat basophilic leukemia (RBL) cells; experiment: Degranulation of RBL cells; type: cell-based; details: induced with PMA/ionomycin or IgE-antigen complexes, not shown
From the text: The proposed mechanism of the AVP compounds on intracellular protein transit also allows certain predictions as to other effects and non-effects that these compounds might share. For example, inhibition of vesicle fusion or budding between the ER and golgi should not affect exocytosis as would be expected of a post-golgi active compound such as Monensin. AVP 893 has minimal effects on the expression of proteins involved in exocytosis, particularly VAMP, SNAP23 (non-neuronal cells), and SNAP25 (neuronal cells).

[2] = system: CD23 and the IL-4 receptor on murine B cells and human monocytes; experiment: Induction of CD23 and IL-4 receptor expression; type: cell-based, mouse; details: murine B cells and human monocytes in vitro
[3] = system: T cells from mouse spleen and human PBL; experiment: T cell cytokine responses in vitro (Luminex beads); type: cell-based
From the text: These series of compounds were initially identified on the basis of their IgE-blocking activity in an ex vivo IgE response protocol (FIG. 2), and the biological activity of all analogs are characterized on the basis of their activity in this assay. Activity in the ex vivo assay is corroborated in the in vitro assay of B cell response to 1L-4/anti-CD40 Ab-stimulated IgE in human PBL (FIG. 3) using standard procedures, and mouse splenic B cells (not shown). Drug action on T cells was shown by testing T cell cytokine responses to various stimuli in vitro. The response of a cadre of cytokines and chemokines to several alternative stimuli was tested in T cells from both mouse spleen and human PBL. T cells were isolated from murine spleen and cultured for 16 hours in the presence of stimulus+/−AVP 13358. Supernatants were quantified for cytokines using Luminex beads. All cytokines achieved levels of at least 200 pg/ml and 10-fold higher than background (FIG. 4). T cells were isolated from donor PBL and cultured for 16-36 hours in the presence of Phytohemaglutin (PHA, 5 μg/ml) and ConA (5 μg/ml)+/−AVP 13358. Supernatants were quantified for cytokines using Luminex beads (FIG. 5). […] Total protein was assessed by the SRB assay, as adopted for many of the proliferation experiments outline below.

GS28 = GS28 expression by Western blotting; type: cell-based; details: MOLT4, Hs578T, H-460, overnight
Experimental: The culture medium was removed by vacuuming (for attached cells) or by low speed centrifugation (for suspension cells) for 5-7 minutes at room temperature. The cells were wasedh twith PBS, spun at 1200 rpm and the cell pellets were kept on ice. 300 μl/2.0×10^7 cells of ice cold lysis buffer was added with freshly added protease inhibitors. Cell pellets were gently resuspended and incubated on ice for at least 30 min, vortexed a few times during incubation. Cell lysate was spun at 14,000 rpm for 2-5 min at 4° C. The supernatant was transferred to a new microfuge tube and the pellet was discarded. An aliquot of sample was mixed with an equal volume of 2× sample buffer (InVitrogen), and stored at −80° C. Protein concentration was determined by using “BCA protein assay reagent kit” from Pierce.
Protein samples (in sample buffer) were boiled for 1-3 minutes and put on ice. Same amount of protein were loaded on the NuPage gel (InVitrogen). After the electrophoresis was complete, proteins were transferred from the gel to a PVDF membrane using the electro-blotting apparatus from InVitrogen; the voltage was set to 25 for 2-3 hr. Block non-specific binding by incubating membrane with 5% milk (in PBS, 0.1% tween 20) for at least 30 min at room temperature or overnight at 4° C. The blocked membrane was incubated with primary antibody (See TABLE 2) diluted in 5% milk for 1 hour at room temperature. Optimal antibody dilution depends on the company, the amount of protein. Dilutions of 1:1000 were generally used for the primary antibodies from Santa Cruz. The membrane was washed with PBS, 0.1% tween 3-4 times 5 mins. The membrane was incubated for 30-60 minutes at room temperature with horseradish peroxidase (HRP) conjugated secondary antibody diluted in 5% milk. We usually used 1:4000 dilution for the secondary antibody from Santa Cruz. The membrane was washed 3-4 times with PBS, 0.1% tween, each time 15 minutes. The detection solutions A and B were mixed in a ratio 40:1 and Pipetted onto the membrane, and incubated for 5 min at RT. A sheet of Hyper film ECL was placed on the top of the membrane in the dark and exposed for 1 min, or adjust accordingly.
To further examine the putative protein trafficking effects of AVP 893, other proteins in this pathway were tested in vitro in B16 and other cell lines. The effect of AVP 893 on cellular proteins was corroborated in B16 cells and extended to include a time-course (FIG. 17). B16-F10 tumor cells were seeded in T75 flasks at 20% confluence and cultured overnight. AVP 893 (100 ng/ml) was added to several flasks and one flask of cells was harvested at several time points following addition of compound. Lysates were prepared, separated by electrophoresis, and probed with antibody as described above in the general Western blotting protocol. Drug effects on GS28 and nicastrin paralleled each other and were progressively stronger with longer drug incubations. […] Other cell lines were tested for their expression of GS28 and nicastrin and found to respond similarly to drug, although quantitative differences were evident. Tumor cell lines found to respond similarly to AVP 893 include CAK1, SF295, PC3, MOLT4, Neuro2a, and RBL (FIGS. 18, 19, and 20). For the experiment shown in FIG. 18, LOX, CAKI, and 3T3 cell lines were treated as described for FIG. 17. For the results shown in FIG. 19, SF295, PC3, MOLT-4, and Neuro2a cells were treated as described for FIG. 17. For the results shown in FIG. 20, LOX, 3T3, and RBL cell lines were treated with varying concentrations of AVP 893 as described for FIG. 17. The effects on LOX cells were less evident. […] Levels of calnexin, a resident ER protein used as a control, were unchanged in drug-treated cells.

[4] = system: tumor cell lines (NCI 60-cell screening panel); details: NCI 60-cell screen, data from the NCI database; cited from earlier work
Mannosidase II = Mannosidase II immunocytochemistry; type: cell-based; details: 1 hr of treatment, immunocytochemistry
Experimental: GS15, GS28, GPP130, and Mannosidase II, sparing the golgi structural protein GM-130 and having little effect on the Rab GTPase Rab6. Furthermore, these affects were most pronounced following overnight (16-20 hr) incubations with AVP 893, although some affects at early time points were seen. These conclusions were drawn from the western blot analysis (FIG. 29), as well as from the immunocytochemical studies (FIGS. 30-31).
Additional evidence that AVP 893 has unique activity against resident golgi proteins (e.g. Mannosidase II), was found using both shorter durations of drug exposure and immunocytochemistry instead of western blot analysis (FIG. 43).

HCC 1806 = experiment: Inhibition of tumor cell proliferation in vitro (SRB total protein); type: cell-based; details: in-house head-to-head, about 72 hours
Experimental: (§1) For a typical screening experiment, cells are inoculated into 96 well microtiter plates in 100 μl at plating densities ranging from 5,000 to 40,000 cells/well depending on the doubling time of individual cell lines. After cell inoculation, the microtiter plates are incubated at 37° C., 5% or 10% CO2—depending on the cell line and media—95% air and 100% relative humidity for 24 h prior to addition of experimental drugs. After 24 h, two plates of each cell line are fixed in situ with TCA, to represent a measurement of the cell population for each cell line at the time of drug addition. Following drug addition, the plates are incubated for an additional 48 h at 37° C., 5%/10% CO2, 95% air, and 100% relative humidity. For adherent cells, the assay is terminated by the addition of cold TCA. Cells are fixed in situ by the gentle addition of 50 μl of cold 50% (w/v) TCA (final concentration, 10% TCA) and incubated for 60 minutes at 4° C. The supernatant is discarded, and the plates are washed five times with tap water and air-dried. Sulforhodamine B (SRB) solution (10011) at 0.4% (w/v) in 1% acetic acid is added to each well, and plates are incubated for 10 minutes at room temperature. After staining, unbound dye is removed by washing five times with 1% acetic acid and the plates are air-dried. Bound stain is subsequently solubilized with 10 mM trizma base, and the absorbance is read on an automated plate reader at a wavelength of 515 nm. For suspension cells, the methodology is the same except that the assay is terminated by fixing settled cells at the bottom of the wells by gently adding 50 μl of 80% TCA (final concentration, 16% TCA). Using the seven absorbance measurements [time zero, control growth, and test growth in the presence of drug at the five concentration levels], the percentage growth is calculated at each of the drug concentrations levels.
(§2) Brefeldin A was tested by the NCI for inhibition of tumor cell proliferation in the 60-cell screen. The NCI 60-cell screen was performed essentially as described for FIG. 9. Data available from the NCI database for Brefeldin A was compared with more recent AVP 893 data. […] Several tumor cell lines were cultured in the presence of either AVP 893 or Brefeldin A for about 72 hours before assessing proliferation response by measuring total protein (SRB), as described for FIG. 9. The results of the head-to-head comparisons performed in-house also show substantial variation in the relative proliferative responses of cells to Brefeldin A and AVP 893 in vitro (TABLE 3).

NCI H-460 = experiment: as above; type: cell-based; details: in-house head-to-head, about 72 hours, SRB
Experimental: as §1, §2

MOLT-4 = experiment: as above; type: cell-based; details: in-house head-to-head, about 72 hours, SRB
Experimental: as §1, §2

Hs578T = experiment: as above; type: cell-based; details: in-house head-to-head, about 72 hours, SRB
Experimental: as §1, §2

Row | Structure (SMILES) | activity in kinase and biochemical assays (60 kinase assays) | degranulation [1] | induction of CD23 and IL-4 receptor [2] | IL-1 levels ([3]; in vitro) | levels of cytokines including IL-4, IL-5, IL-13 ([3]; stimulated T cells, 16-36 hours) | GS28 expression (GS28) | concentrations inhibiting proliferation of virtually all cells [4] [nM] | Mannosidase II staining pattern (Mannosidase II) | IC50 (HCC 1806) [µg/mL] | IC50 (NCI H-460) [µg/mL] | IC50 (MOLT-4) [µg/mL] | IC50 (Hs578T) [µg/mL]
1 | O=C(Nc1ccccn1)c1ccc2[nH]c(-c3ccc(NC(=O)C45C[C@H]6C[C@@H](C4)C[C@@H](C5)C6)cc3)nc2c1 [AVP 13358] | no drug activity was observed | does not inhibit degranulation | potently blocked the induction of these receptors | does not affect IL-1 levels | potently suppressed the levels of most cytokines |  |  |  |  |  |  | 
2 | C[C@H]1CCC/C=C/[C@@H]2C[C@H](O)C[C@H]2[C@H](O)/C=C/C(=O)O1 [Brefeldin A, reference compound] |  |  |  |  |  | variable effects | 10 to 100 | completely dispersed | 0.03 (≈ 0.107 µM) | 0.005 (≈ 0.0178 µM) | 0.003 (≈ 0.0107 µM) | 0.1 (≈ 0.357 µM)

From US20050256179A1, “Selective pharmacologic inhibition of protein trafficking and related methods of treating human diseases” (priority 2003, published 2005)
